Test results: patent US9637490B2, “Antifungal 5,6-dihydro-4-[(difluoroethyl)phenyl]-4H-pyrrolo[1,2-α][1,4]benzodiazepine and 4-(difluoroethyl)phenyl-6H-pyrrolo[1,2-α][1,4]benzodiazepine derivatives” (Janssen Pharmaceutica NV, priority 2010, dated 2017)
pIC50: −log10 of the molar value.

Legend:
[1] = tested on: Mucor circinelloides IHEM21105; experiment: Antifungal activity in vitro (resazurin susceptibility screen), Inf. L; assay type: cell-based; details: 27 °C, 48 hours, resa time 17 hours
Protocol: (§1) The standard susceptibility screen was performed in 96-well plates (U-bottom, Greiner Bio-One). Serial dilutions (2-fold or 4-fold) of 20 mM compound stock solutions were made in 100% DMSO, followed by an intermediate dilution step in water. These serial dilutions (10 μl) were then spotted onto test-plates that could be stored in the dark at 4° C. for a maximum period of 2 weeks. An adequate broad dose-range was included with 64 μM as the highest in-test concentration. The culture medium RPMI-1640 was supplemented with L-glutamine, 2% glucose and buffered with 3-(N-morpholino)-propanesulfonic acid (MOPS) at pH 7.0±0.1. The different fungal species/isolates (Table 3a) were cryopreserved and 1/1000 diluted in medium just prior to use. A standard inoculum of 200 μl containing 10^3 colony-forming unit (cfu) was then added to each well. A positive control (100% growth=fungal culture without antifungal) and a negative control (0% growth=RPMI-MOPS medium) were included on each plate. Optimal incubation time and temperature were dependent on the fungal species and vary from 24 h for yeasts (37° C.) to one week or more for dermatophytes (27° C.). Inhibition of fungal growth was measured after adding 10 μl of 0.005% (w/v) resazurin (Sigma Aldrich) to each well, based on the principle that living cells convert the non-fluorescent blue resazurin into the pink and fluorescent resorufin, allowing fluorimetric reading (λhd ex 550 nm and μem 590 nm) after an additional incubation period (‘resa’ time mentioned in Table 3a). [table]

[2] = tested on: Aspergillus fumigatus B42928; experiment: Antifungal activity in vitro (resazurin susceptibility screen), Inf. E; assay type: cell-based; details: Aspergillus fumigatus, B42928, Aspergillus fumigatus B42928; 27 °C, 48 hours, resa time 17 hours
Protocol: as §1

Rhizopus oryzae IHEM5223 = experiment: Antifungal activity in vitro (resazurin susceptibility screen), Inf. J; assay type: cell-based; details: Rhizopus arrhizus, 37 °C, 24 hours, resa time 6 hours
Protocol: as §1

[3] = tested on: Sporothrix schenkii B62482; experiment: Antifungal activity in vitro (resazurin susceptibility screen), Inf. A; assay type: cell-based; details: Sporothrix, B62482, Sporothrix schenkii B62482; 27 °C, 4 days, resa time 24 hours
Protocol: as §1

[4] = tested on: Scedosporium apiospermum IHEM3817; experiment: Antifungal activity in vitro (resazurin susceptibility screen), Inf. H; assay type: cell-based; details: Scedosporium apiospermum, IHEM3817, Scedosporium apiospermum IHEM3817; 37 °C, 48 hours, resa time 17 hours
Protocol: as §1

[5] = tested on: Rhizomucor miehei IHEM13391; experiment: Antifungal activity in vitro (resazurin susceptibility screen), Inf. K; assay type: cell-based; details: Rhizomucor miehei, IHEM13391, Rhizomucor miehei IHEM13391; 37 °C, 48 hours, resa time 17 hours
Protocol: as §1

Microsporum canis B68128 = experiment: Antifungal activity in vitro (resazurin susceptibility screen), Inf. B; assay type: cell-based; details: Microsporum canis, B68128, Microsporum canis B68128; 27 °C, 9 days, resa time 24 hours
Protocol: as §1

[6] = tested on: Candida parapsilosis B66126; experiment: Antifungal activity in vitro (resazurin susceptibility screen), Inf. D; assay type: cell-based; details: Lodderomyces parapsilosis, B66126, Candida parapsilosis B66126; 37 °C, 24 hours, resa time 4 hours
Protocol: as §1

[7] = tested on: Scedosporium prolificans IHEM21157; experiment: Antifungal activity in vitro (resazurin susceptibility screen), Inf. I; assay type: cell-based; details: Lomentospora prolificans, 37 °C, 48 hours, resa time 17 hours
Protocol: as §1

[8] = tested on: Cryptococcus neoformans B66663; experiment: Antifungal activity in vitro (resazurin susceptibility screen), Inf. F; assay type: cell-based; details: Cryptococcus neoformans, B66663, Cryptococcus neoformans B66663; 37 °C, 24 hours, resa time 4 hours
Protocol: as §1

[9] = tested on: Trichophyton mentagrophytes B70554; experiment: Antifungal activity in vitro (resazurin susceptibility screen), Inf. G; assay type: cell-based; details: Trichophyton mentagrophytes, B70554, Trichophyton mentagrophytes B70554; 27 °C, 7 days, resa time 24 hours
Protocol: as §1

[10] = tested on: Trichophyton rubrum B68183; experiment: Antifungal activity in vitro (resazurin susceptibility screen), Inf. C; assay type: cell-based; details: Trichophyton rubrum, B68183, Trichophyton rubrum B68183; 27 °C, 7 days, resa time 24 hours
Protocol: as §1

| Structure (SMILES) | pIC50 [1] | pIC50 [2] | pIC50 (Rhizopus oryzae IHEM5223) | pIC50 [3] | pIC50 [4] | pIC50 [5] | pIC50 (Microsporum canis B68128) | pIC50 [6] | pIC50 [7] | pIC50 [8] | melting point | pIC50 [9] | pIC50 [10] |
| --- | --- | --- | --- | --- | --- | --- | --- | --- | --- | --- | --- | --- | --- |
| CC(F)(F)c1ccc(C2=NCc3c(Cl)cccc3-n3cccc32)cc1F [Compound 29, 7-chloro-4-[4-(1,1-difluoroethyl)-3-fluorophenyl]-6H-pyrrolo[1,2-a][1,4]benzodiazepine] | < 4.19 | 6.30 | < 4.19 | < 4.19 | < 4.19 | < 4.19 | 6.96 | < 4.19 | < 4.19 | < 4.19 | 186.3 to 186.6 °C | 6.72 | 7.07 |
| CC(F)(F)c1ccc(C2=NCc3c(Cl)cc(F)cc3-n3cccc32)cc1F [Compound 31, 7-chloro-4-[4-(1,1-difluoroethyl)-3-fluorophenyl]-9-fluoro-6H-pyrrolo[1,2-a][1,4]-benzodiazepine] | < 4.19 | 6.30 | < 4.19 | 5.63 | 4.98 | < 4.19 | 6.36 | 5.46 | 5.06 | 6.53 | 162.5 to 164.8 °C | 5.90 | 6.33 |
| CC(F)(F)c1ccc(C2=NCc3c(F)cc(Cl)cc3-n3cccc32)cc1 [Compound 32, 9-chloro-4-[4-(1,1-difluoroethyl)phenyl]-7-fluoro-6H-pyrrolo[1,2-a][1,4]benzodiazepine] | < 4.19 | 5.70 | < 4.19 | 5.21 | < 4.19 | < 4.19 | 5.78 | 5.56 | < 4.19 | 5.89 | 145.3 to 147.4 °C | 5.78 | 5.78 |

More lines, now with the values ahead:

| pIC50 [1] | pIC50 [2] | pIC50 (Rhizopus oryzae IHEM5223) | pIC50 [3] | pIC50 [4] | pIC50 [5] | pIC50 (Microsporum canis B68128) | pIC50 [6] | pIC50 [7] | pIC50 [8] | melting point | pIC50 [9] | pIC50 [10] | Structure (SMILES) |
| --- | --- | --- | --- | --- | --- | --- | --- | --- | --- | --- | --- | --- | --- |
| < 4.19 | 6.23 | < 4.19 | 4.99 | 6.80 | 4.87 | 6.33 | 5.42 | 6.72 | < 4.19 | 84.9 to 85.9 °C | 5.92 | 6.33 | CC(F)(F)c1cc(C2=NCc3c(Cl)cc(F)cc3-n3cccc32)ccc1F [Compound 26, 7-chloro-4-[3-(1,1-difluoroethyl)-4-fluorophenyl]-9-fluoro-6H-pyrrolo[1,2-a][1,4]-benzodiazepine] |
| < 4.19 | ≤ 4.19 | < 4.19 | 4.55 | 6.15 | 4.38 | 4.85 | 4.34 | 5.64 | 4.78 | 139.3 to 141.2 °C | 4.57 | 5.13 | Cc1ccc(Cl)c2c1CN=C(c1ccc(C(C)(F)F)cc1)c1cccn1-2 [Compound 28, 10-chloro-4-[4-(1,1-difluoroethyl)phenyl]-7-methyl-6H-pyrrolo[1,2-a][1,4]-benzodiazepine] |
| < 4.19 | 6.30 | < 4.19 | < 4.19 | 5.05 | 4.91 | 6.33 | 5.11 | 5.34 | 5.85 | 170.8 to 171.5 °C | 6.44 | 6.79 | CC(F)(F)c1ccc(C2=NCc3c(F)cccc3-n3cccc32)cc1F [Compound 30, 4-[4-(1,1-difluoroethyl)-3-fluorophenyl]-7-fluoro-6H-pyrrolo[1,2-a][1,4]benzodiazepine] |
| < 4.19 | 5.72 | < 4.19 | 5.03 | 6.19 | < 4.19 | 5.71 | 4.87 | 4.98 | 5.58 | 158.2 to 161.3 °C | 5.67 | 6.14 | CC(F)(F)c1ccc(C2=NCc3c(F)cc(F)cc3-n3cccc32)cc1F [Compound 33, 4-[4-(1,1-difluoroethyl)-3-fluorophenyl]-7,9-difluoro-6H-pyrrolo[1,2-a][1,4]-benzodiazepine] |
